#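 96-well plates; 48 h exposure; 5 concentrations. Endpoints by linear interpolation between flanking doses. Not reached: highest tested concentration assigned. At the GI50, growth is halved. TGI marks complete inhibition of growth.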
# Columns and labels:
# Test in all cases: NCI anticancer screen, dose series, 48 h
# [1] = tested on: HCT-116 colon
# [2] = tested on: UACC-62 melanoma
# [3] = tested on: 786-0 renal
# [4] = tested on: DU-145 prostate
# [5] = tested on: M14 melanoma
# [6] = tested on: KM12 colon
# [7] = tested on: MOLT-4 leukemia
# [8] = tested on: NCI-H23 lung
# [9] = tested on: IGROV1 ovarian
# [10] = tested on: OVCAR-8 ovarian
# [11] = tested on: ACHN renal
# [12] = tested on: HS 578T breast
# [13] = tested on: SK-MEL-28 melanoma
# [14] = tested on: U251 CNS
# [15] = tested on: MCF7 breast
# [16] = tested on: NCI-H460 lung
# [17] = tested on: HCT-15 colon
# [18] = tested on: COLO 205 colon
# [19] = tested on: UO-31 renal
# [20] = tested on: OVCAR-5 ovarian
# [21] = tested on: HL-60(TB) leukemia
# [22] = tested on: CCRF-CEM leukemia
# [23] = tested on: OVCAR-4 ovarian
# [24] = tested on: UACC-257 melanoma
# [25] = tested on: SK-OV-3 ovarian
# [26] = tested on: SR leukemia
# [27] = tested on: SK-MEL-2 melanoma
# [28] = tested on: HOP-92 NSCLC
# [29] = tested on: HCC-2998 colon
# [30] = tested on: SF-539 CNS
# [31] = tested on: NCI/ADR-RES ovarian
# [32] = tested on: K-562 leukemia
# [33] = tested on: SN12C renal
# [34] = tested on: LOX IMVI melanoma
# [35] = tested on: RXF 393 renal
# [36] = tested on: TK-10 renal
# [37] = tested on: SK-MEL-5 melanoma
# [38] = tested on: BT-549 breast
# [39] = tested on: A498 renal
# [40] = tested on: SF-268 CNS
# [41] = tested on: MDA-MB-231 breast
# [42] = tested on: HT29 colon
# [43] = tested on: SNB-19 CNS
# [44] = tested on: MDA-MB-435
# [45] = tested on: MALME-3M melanoma
# [46] = tested on: NCI-H226 lung
# [47] = tested on: OVCAR-3 ovarian
# [48] = tested on: HOP-62 NSCLC
# [49] = tested on: T-47D breast
# [50] = tested on: CAKI-1 renal
# [51] = tested on: PC-3 prostate
# [52] = tested on: A549 NSCLC
# [53] = tested on: RPMI-8226 leukemia
# [54] = tested on: SF-295 CNS
# [55] = tested on: SW-620 colon
# [56] = tested on: SNB-75 CNS
# [57] = tested on: NCI-H522 lung
compound,measurement,setting,value
CCOC(=O)Nc1nc2cc(OC)c(OC)c(OC)c2s1,GI50,[1],> 100 µM
same,TGI,[1],> 100 µM
same,GI50,[2],> 100 µM
same,TGI,[2],> 100 µM
same,GI50,[3],61.2 µM
same,TGI,[3],> 100 µM
same,GI50,[4],> 100 µM
same,TGI,[4],> 100 µM
same,GI50,[5],> 100 µM
same,TGI,[5],> 100 µM
same,GI50,[6],> 100 µM
same,TGI,[6],> 100 µM
same,GI50,[7],> 100 µM
same,TGI,[7],> 100 µM
same,GI50,[8],28.5 µM
same,TGI,[8],> 100 µM
same,GI50,[9],91 µM
same,TGI,[9],> 100 µM
same,GI50,[10],> 100 µM
same,TGI,[10],> 100 µM
same,GI50,[11],46.9 µM
same,TGI,[11],> 100 µM
same,GI50,[12],17.5 µM
same,TGI,[12],> 100 µM
same,GI50,[13],> 100 µM
same,TGI,[13],> 100 µM
same,GI50,[14],38.7 µM
same,TGI,[14],> 100 µM
same,GI50,[15],> 100 µM
same,TGI,[15],> 100 µM
same,GI50,[16],> 100 µM
same,TGI,[16],> 100 µM
same,GI50,[17],> 100 µM
same,TGI,[17],> 100 µM
same,GI50,[18],> 100 µM
same,TGI,[18],> 100 µM
same,GI50,[19],13.9 µM
same,TGI,[19],> 100 µM
same,GI50,[20],> 100 µM
same,TGI,[20],> 100 µM
same,GI50,[21],> 100 µM
same,TGI,[21],> 100 µM
same,GI50,[22],> 100 µM
same,TGI,[22],> 100 µM
same,GI50,[23],> 100 µM
same,TGI,[23],> 100 µM
same,GI50,[24],> 100 µM
same,TGI,[24],> 100 µM
same,GI50,[25],66.5 µM
same,TGI,[25],> 100 µM
same,GI50,[26],> 100 µM
same,TGI,[26],> 100 µM
same,GI50,[27],62.6 µM
same,TGI,[27],> 100 µM
same,GI50,[28],15.8 µM
same,TGI,[28],74.9 µM
same,GI50,[29],> 100 µM
same,TGI,[29],> 100 µM
same,GI50,[30],> 100 µM
same,TGI,[30],> 100 µM
same,GI50,[31],> 100 µM
same,TGI,[31],> 100 µM
same,GI50,[32],> 100 µM
same,TGI,[32],> 100 µM
same,GI50,[33],> 100 µM
same,TGI,[33],> 100 µM
same,GI50,[34],> 100 µM
same,TGI,[34],> 100 µM
same,GI50,[35],49.4 µM
same,TGI,[35],> 100 µM
same,GI50,[36],42.4 µM
same,TGI,[36],> 100 µM
same,GI50,[37],> 100 µM
same,TGI,[37],> 100 µM
same,GI50,[38],> 100 µM
same,TGI,[38],> 100 µM
same,GI50,[39],26.2 µM
same,TGI,[39],> 100 µM
same,GI50,[40],50.4 µM
same,TGI,[40],> 100 µM
same,GI50,[41],31.5 µM
same,TGI,[41],> 100 µM
same,GI50,[42],> 100 µM
same,TGI,[42],> 100 µM
same,GI50,[43],> 100 µM
same,TGI,[43],> 100 µM
same,GI50,[44],> 100 µM
same,TGI,[44],> 100 µM
same,GI50,[45],> 100 µM
same,TGI,[45],> 100 µM
same,GI50,[46],73.7 µM
same,TGI,[46],> 100 µM
same,GI50,[47],51.5 µM
same,TGI,[47],> 100 µM
same,GI50,[48],24.9 µM
same,TGI,[48],95.6 µM
same,GI50,[49],> 100 µM
same,TGI,[49],> 100 µM
same,GI50,[50],> 100 µM
same,TGI,[50],> 100 µM
same,GI50,[51],> 100 µM
same,TGI,[51],> 100 µM
same,GI50,[52],> 100 µM
same,TGI,[52],> 100 µM
same,GI50,[53],> 100 µM
same,TGI,[53],> 100 µM
same,GI50,[54],41.4 µM
same,TGI,[54],> 100 µM
same,GI50,[55],> 100 µM
same,TGI,[55],> 100 µM
same,GI50,[56],16.9 µM
same,TGI,[56],64.6 µM
same,GI50,[57],> 100 µM
same,TGI,[57],> 100 µM

# — PubChem BioAssay (NCI)
